Test results as given in patent US20070244449A1, “System and method for the prevention of bacterial and fungal infections including Urinary Tract Infections (UTI) using N-halogenated amino acids” (Novacal Pharmaceuticals, Inc., priority 2005, published 2007).

Columns and labels:
[1] = test system: Escherichia coli ATCC 25922; assay: Destruction of 48 h biofilm on 1-cm Foley catheter pieces, plate count; format: cell-based; settings: 33 mM, 0.9% saline, pH 3.5
Procedure: (§1) We have devised a dynamic in vitro model using traditional microbiological methods to assess the antimicrobial efficacy of 33 mM N, N-dichloro 2,2-dimethly taurine in 0.9% saline at pH 3.5, as compared to physiological saline in disinfecting intra-luminal and extra-luminal indwelling Foley catheter.
(§2) Foley Catheter, manufactured by BARD • N,N-dichloro 2,2-dimethyl taurine (33 mM) in 0.9% saline pH 3.5 • Escherichia coli ATCC 25922 • Proteus mirabilis ATCC 29245
(§3) Neutralizer Broth containing: A broth containing dextrose, lecithin, sodium thiosulfate, pancreatic digest of casein, Tween® 80, yeast extract, sodium bisulfate, sodium thioglycollate, monopotassium phosphate, and bromcresol purple.
(§4) The ability of N,N-dichloro 2,2-dimethyl taurine to destroy biofilm formation was evaluated as follows. First, biofilm was established on 1-cm-long pieces of catheter for 48 hours in nutrient broth in the presence of either Proteus mirabilis or Escherichia coli. Subsequently, the biofilm-bearing pieces of catheter were exposed to 33 mM N,N-dichloro 2,2-dimethyl taurine in 0.9% saline at pH 3.5 over various periods of time. After the exposure, the pieces of catheter were transferred into 1 mL of neutralizer broth to stop the reaction. 0.1 mL (10%) of the neutralizer broth was then plated out onto nutrient agar and the number of colonies was counted. The CFU (Colony Forming Unit) values obtained were multiplied by 10 to obtain the actual CFU/mL values per treated sample.

[2] = test system: Proteus mirabilis ATCC 29245; assay: as above; format: cell-based; settings: 33 mM, 0.9% saline, pH 3.5
Procedure: as §1, §2, §3, §4

[3] = test system: E. coli and Pr. mirabilis; assay: Treated biofilm-bearing catheter pieces: re-culture (OD600) and visual examination; format: cell-based, Escherichia coli; Proteus mirabilis
Procedure: In order to measure the amount of live bacteria left on the pieces of catheter following treatment, the biofilm-bearing pieces of catheter were transferred into tubes containing fresh growth medium. After allowing growth in a shaker at 37° C. for 4 hours, Optical Density (OD) was read at 600 nm.
This was also shown by very low optical denisty readings (average of 0.057 OD600 units, individual data not listed) following the attempt to re-culture the bacteria from treated catheters.

[4] = test system: urease positive Escherichia coli ATCC 25922; assay: Biofilm eradication in model urinary catheter flow system; format: cell-based; settings: for Average Log CFU/cm^2 on catheter section after treatment, average 3 pieces / Average Log CFU/cm^2 on catheter section after treatment, end / Average Log CFU/cm^2 on catheter section after treatment, front / Average Log CFU/cm^2 on catheter section after treatment, middle / Log reduction: pH 4, 0.9% NaCl; for Average Log CFU/cm^2 on catheter section after treatment, average 3 pieces / Average Log CFU/cm^2 on catheter section after treatment, end / Average Log CFU/cm^2 on catheter section after treatment, front / Average Log CFU/cm^2 on catheter section after treatment, middle: 3-day biofilm, 10 min flow + 30 min stationary; for Log reduction: versus PBS or saline
Procedure: A test system was established which utilized size 14 Foley catheters (supplied by NovaCal), which were cut and installed into a pre-sterilized flow system (FIG. 4) using aseptic techniques. The system consists of five parallel channels, one channel per catheter. Sterile medium was supplied to the system via a flow-break, to prevent back-growth into the medium reservoir. The entire system was placed in a 37° C. incubator. After conditioning the system with artificial urine medium for 30 minutes, 2.0 ml inoculum from an overnight culture of urease positive Escherichia coli ATCC 25922 grown in artificial urine medium at 37° C. was introduced into the system via the valve closest to the flow break (bladder side of catheter). Each inoculum was tested to confirm urease production. After inoculation, the system remained under static conditions (no flow) for two hours, to allow for bacterial attachment to the catheters. Flow of artificial urine medium was then initiated and maintained at a rate of 0.75 ml/min for 3 days.
Test Articles Used Were: • Sterile saline • N,N-dichloro 2,2-dimethyl taurine, 4 mM, pH 4, 0.9% by weight NaCl • N,N-dichloro 2,2-dimethyl taurine, 40 mM, pH 4, 0.9% by weight NaCl
20 ml of each treatment solution N,N-dichloro 2,2-dimethyl taurine and sterile control solution were loaded into 30 ml syringes and connected to a syringe pump. Sterile sections of tubing were attached from the syringe to the valve furthest from the flow break (bag end of the catheter). This end is designated as FRONT for sampling purposes. The pump was turned on and the treatments were introduced at 2.0 ml/min for 10 minutes through the catheters. Excess medium and treatment solution was captured in a waste container. After 10 minutes, the syringe pump was turned off and the solutions were left stationary in the catheters for 30 minutes. The solutions were then withdrawn back through the catheter into the syringe, medium flow was resumed for a 30 minute rinse time and the catheters were then sampled.
Each catheter was divided into 3 segments (front, middle, end) and each segment was subsampled. One subsample was used to determine bacterial populations by plate count, another subsample was analyzed by staining with the LIVE/DEAD® Baclight™ bacterial viability kit (L7012, Molecular Probes, Oregon, USA) using confocal laser microscopy (CSLM), the third sample was imaged using scanning electron microscopy (SEM).
(§5) For viable cell counts, a 3.0 centimeter section of tubing was removed and scraped with a sterile stainless steel rod (using aseptic technique) into a tube containing 10.0 ml of sterile phosphate-buffered saline (PBS). The tubes were then sonicated for two minutes and the suspension was vortexed for one minute. The number of viable (culturable) bacteria was enumerated by serial dilution in PBS and plate counts using the spread-plate technique. Results were expressed as CFU/cm^2 and are calculated as follows: [formula]
The surface area of the internal lumen of the catheter section scraped was determined to be 2.826 cm^2.
Three treatment runs were performed on 3 catheters each: One treated with PBS or sterile 0.9% saline as control, one treated with 4 mM and one treated with 40 mM N,N-dichloro 2,2-dimethyl taurine. The Log (CFU/cm^2) was calculated from the average of 9 treatments, consisting of 3 treatments of 3 catheter pieces for each Test Article.

[5] = test system: urease positive Escherichia coli ATCC 25922; assay: Biofilm prevention in model urinary catheter flow system; format: cell-based
Procedure: Test Articles Used Were: • Sterile saline • White vinegar at 1:3 dilution with distilled water (filter sterilized). • Neomycin Prescription: 1 ml into 1000 ml of sterile saline • N,N-dichloro 2,2-dimethyl taurine, 40 mM, pH 4, 0.9% by weight NaCl
Day 0: The test system, as described in detail above, utilized size 14 Foley catheters, cut and installed into a pre-sterilized flow system using aseptic techniques. Sterile medium was supplied to the system via a flow-break, to prevent back-growth into the medium reservoir. The entire system was placed into a 37° C. incubator. After conditioning the system with artificial urine medium for 30 minutes, each catheter was treated with a disinfectant. 20.0 ml of each treatment solution was loaded into 30 ml syringes and connected to a syringe pump. Sterile sections of tubing were attached from the syringe to the valve furthest from the flow break (bag end of the catheter). This end is designated as FRONT for sampling purposes. The pump was turned on and the treatments were introduced at 2.0 ml/min for 10 minutes through the catheters. Excess medium and treatment solution was captured in a waste container. After 10 minutes, the syringe pump was turned off and the solutions were left stationary in the catheters for 30 minutes. The solutions were then withdrawn back through the catheter into the syringe. The catheters were then rinsed with sterile medium for 30 minutes.
On Day 0 only: An inoculum from an overnight culture of urease positive Escherichia coli ATCC 25922 grown in artificial urine medium at 37° C. was introduced into the system via the valve closest to the flow break (bladder side of catheter). Each inoculum was tested for confirmation of urease production. After inoculation, the system remained under static conditions (no flow) for two hours, to allow for bacterial attachment to the catheters. Flow of artificial urine medium was then initiated and maintained at a rate of 0.75 ml/min.
as §5, with “Days 1, 3 and 5: For” for “For”, “sterile PBS.” for “sterile phosphate-buffered saline (PBS).”, “Results are” for “Results were”, “and were” for “and are”, “as described in Phase One.” for “as follows: [formula]”
Days 1 and 3: After sampling, the catheters were disinfected and rinsed with sterile medium as described above.
Days 2 and 4: the catheters were disinfected and rinsed with sterile medium as described above. No samples were taken.
Day 5: Samples were taken for imaging and both ends of the catheter were sampled for viable cell count data.

[6] = test system: bacteria on Foley catheter removed from a patient; assay: Ex-vivo treatment of a patient catheter, viable plate counts; format: cell-based; settings: 40 mM
Procedure: Test Articles Used Were: • Sterile phosphate-buffered saline (PBS) • N,N-dichloro 2,2-dimethyl taurine, 40 mM, pH 4, 0.9% by weight NaCl
A Foley catheter was removed from a patient by hospital personnel and placed in a sterile bag. In the Bozeman Deaconess Hospital (BDH) lab, the outside of the catheter was wiped down with 70% ethanol. Then the catheter was aseptically cut into 3 catheter portions (bag-end, middle and patient-end). Each portion was cut into 3.0 cm long sections using a ruler and razor blades.
Three of the sections (one bag-end, one middle and one patient-end) designated as control were placed into sterile PBS. Three of the sections (one bag-end, one middle and one patient-end) were placed in 40 mM N,N-dichloro 2,2-dimethyl taurine. All catheter sections were treated for 30 minutes individually in sterile glass tubes, each with sufficient solution to be immersed completely. After treatment, each 3 cm section was removed from the treatment tubes and the PBS control tubes and placed into a second glass tube containing sterile PBS for a 2 minute rinse in order to remove the treatment solution. The section was then removed from the tube and aseptically cut into 1.0 cm and 2.0 cm pieces. The 2.0 cm piece was placed in a tube containing 10 ml of sterile PBS, vortexed, sonicated and diluted for viable plate counts. The number of viable (culturable) bacteria was enumerated by serial dilution in PBS and plate counts using the spread-plate technique. Samples were plated on blood agar plates. Results will be expressed as colony-forming units/cm^2, CFU/cm^2 (calculated as 2.0 cm length×0.25 cm (radius)×3.14 (pi)=1.57 cm^2). The 1.0 cm piece was placed in 4% formaldehyde solution.

[7] = daily treatment, DCDMT 40 mM pH 4 0.9% NaCl, vinegar 1:3 in water, neomycin prescription 1 ml in 1000 ml saline
[8] = pH 4, 0.9% NaCl, 30 min immersion

## CC(C)(CS(=O)(=O)O)N(Cl)Cl [N,N-dichloro 2,2-dimethyl taurine]
[1]; exposure 5 min
  CFU/mL: 0 CFU/mL
[1]; exposure 10 min
  CFU/mL: 0 CFU/mL
[1]; exposure 20 min
  CFU/mL: 0 CFU/mL
[1]; exposure 30 min
  CFU/mL: 0 CFU/mL
[1]; exposure 45 min
  CFU/mL: 0 CFU/mL
[1]; exposure 60 min
  CFU/mL: 0 CFU/mL
[1]; exposure 120 min
  CFU/mL: 0 CFU/mL
[1]; exposure <1 min
  CFU/mL: 0 CFU/mL
[2]; exposure 5 min
  CFU/mL: 1210 CFU/mL
[2]; exposure 10 min
  CFU/mL: 150 CFU/mL
[2]; exposure 20 min
  CFU/mL: 150 CFU/mL
[2]; exposure 30 min
  CFU/mL: 100 CFU/mL
[2]; exposure 45 min
  CFU/mL: 20 CFU/mL
[2]; exposure 60 min
  CFU/mL: 10 CFU/mL
[2]; exposure 120 min
  CFU/mL: 260 CFU/mL
[2]; exposure <1 min
  CFU/mL: >>3000 CFU/mL
[3]; 33 mM in 0.9% saline at pH 3.5
  Visual examination of biofilm on the catheter surface: subsequent removal
[3]; 33 mM, 0.9% saline, pH 3.5, 4 h growth at 37 C in fresh medium, average, individual data not listed
  optical density readings following re-culture of bacteria from treated catheters (average): 0.057 OD600 units
[4]; 4 mM and 40 mM
  bacterial counts and presence of biofilm (visual interpretation from images): significantly reduced
[4]; 4 mM
  Average Log CFU/cm^2 on catheter section after treatment, average 3 pieces: 4.4 Log CFU/cm^2
  Average Log CFU/cm^2 on catheter section after treatment, end: 5.1 Log CFU/cm^2
  Average Log CFU/cm^2 on catheter section after treatment, front: 4.1 Log CFU/cm^2
  Average Log CFU/cm^2 on catheter section after treatment, middle: 3.9 Log CFU/cm^2
  Log reduction: 4.7 Log
[4]; 40 mM
  Average Log CFU/cm^2 on catheter section after treatment, average 3 pieces: 3.8 Log CFU/cm^2
  Average Log CFU/cm^2 on catheter section after treatment, end: 3.8 Log CFU/cm^2
  Average Log CFU/cm^2 on catheter section after treatment, front: 3.7 Log CFU/cm^2
  Average Log CFU/cm^2 on catheter section after treatment, middle: 3.8 Log CFU/cm^2
  Log reduction: 5.3 Log
[5]; 40 mM, pH 4, 0.9% NaCl
  biofilm formation during the 5 day duration of the experiment: appeared to inhibit biofilm formation
[5]; [7]
  Biofilm prevention, viable cell count, Day 1: 2.6 log CFU/cm^2
  Biofilm prevention, viable cell count, Day 3: 3.2 log CFU/cm^2
  Biofilm prevention, viable cell count, Day 5 "End" (bladder end): 3.1 log CFU/cm^2
  Biofilm prevention, viable cell count, Day 5 "Front" (bag end): 3.9 log CFU/cm^2
[6]; [8]
  Average Log CFU/cm^2 on catheter section after treatment, average 3 pieces: 1.2 Log CFU/cm^2
  Average Log CFU/cm^2 on catheter section after treatment, bag end: 2.1 Log CFU/cm^2
  Average Log CFU/cm^2 on catheter section after treatment, middle: 0.5 Log CFU/cm^2
  Average Log CFU/cm^2 on catheter section after treatment, patient end: 0.8 Log CFU/cm^2
[6]; compared to catheter pieces treated with sterile PBS
  Log reduction: 1.8 Log
